Measurements from PubChem BioAssay (NCI).
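Cultured in 96-well plates, cells were exposed to test compound for 48 hours across five concentrations. Here, GI50 denotes the concentration required for 50% inhibition of growth. TGI: total growth inhibition.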

How the values were obtained:
Experiment in all cases: DTP human tumour cell line panel, 48 h
A498 renal = system: A498 renal
DU-145 prostate = system: DU-145 prostate
HCT-116 colon = system: HCT-116 colon
K-562 leukemia = system: K-562 leukemia
KM12 colon = system: KM12 colon
OVCAR-8 ovarian = system: OVCAR-8 ovarian
SF-539 CNS = system: SF-539 CNS
SK-MEL-2 melanoma = system: SK-MEL-2 melanoma
SNB-75 CNS = system: SNB-75 CNS
SW-620 colon = system: SW-620 colon

## O=P(O)(O)CN1CCNCCN(CP(=O)(O)O)CCNCC1
A498 renal
  TGI: > 100 µM
DU-145 prostate
  TGI: > 100 µM
HCT-116 colon
  TGI: > 100 µM
K-562 leukemia
  TGI: > 100 µM
KM12 colon
  TGI: > 100 µM
OVCAR-8 ovarian
  TGI: > 83.6 µM
SF-539 CNS
  TGI: > 100 µM
SK-MEL-2 melanoma
  TGI: > 100 µM
SNB-75 CNS
  TGI: > 100 µM
SW-620 colon
  TGI: > 100 µM

## COc1cc(-n2cc(-c3cc(O)c(C/C=C(\C)CCC=C(C)C)c(O)c3)nn2)cc2c1O[C@]1(C)CC[C@@H](O)C(C)(C)[C@H]1C2
A498 renal
  GI50: 298 nM
  TGI: 32.8 µM
DU-145 prostate
  GI50: 2.3 µM
  TGI: 26.3 µM
HCT-116 colon
  GI50: 1150 nM
  TGI: 23.5 µM
KM12 colon
  GI50: 2470 nM
  TGI: 31.9 µM
OVCAR-8 ovarian
  GI50: 3.17 µM
  TGI: > 66.4 µM
SF-539 CNS
  GI50: 0.0664 µM
  TGI: 1.76 µM
SK-MEL-2 melanoma
  GI50: 0.672 µM
  TGI: 11.5 µM
SNB-75 CNS
  GI50: 208 nM
  TGI: 15 µM
SW-620 colon
  GI50: 726 nM
  TGI: 10.7 µM

## O=c1oc2ccc(Cl)cc2cc1-c1cn2ccsc2n1
DU-145 prostate
  TGI: > 100 µM
HCT-116 colon
  TGI: > 100 µM
K-562 leukemia
  TGI: > 100 µM
KM12 colon
  TGI: > 100 µM
OVCAR-8 ovarian
  TGI: 96.8 µM
SF-539 CNS
  TGI: > 100 µM
SK-MEL-2 melanoma
  TGI: > 100 µM
SNB-75 CNS
  TGI: > 100 µM
SW-620 colon
  TGI: > 100 µM

## Nc1ncc(/C=N/O)c(NCC2(CO)CC(CCc3ccccc3)C2)n1 (stereo not drawn)
A498 renal
  TGI: 29.1 µM
DU-145 prostate
  TGI: 28.8 µM
HCT-116 colon
  TGI: 18 µM
K-562 leukemia
  TGI: 31.7 µM
KM12 colon
  TGI: 31.6 µM
OVCAR-8 ovarian
  TGI: 24.1 µM
SF-539 CNS
  TGI: 29.6 µM
SK-MEL-2 melanoma
  TGI: 39.2 µM
SNB-75 CNS
  TGI: 30.8 µM

## CO[P@]1(=O)O[C@@H](c2ccccc2)[C@H](O)[C@@]1(O)c1ccccc1
A498 renal
  TGI: > 100 µM
DU-145 prostate
  TGI: > 100 µM
HCT-116 colon
  TGI: > 100 µM
K-562 leukemia
  TGI: > 100 µM
KM12 colon
  TGI: > 100 µM
OVCAR-8 ovarian
  TGI: > 100 µM
SF-539 CNS
  TGI: > 100 µM
SK-MEL-2 melanoma
  TGI: > 100 µM
SNB-75 CNS
  TGI: > 100 µM
SW-620 colon
  TGI: > 100 µM

## O=CNNC(=O)Nc1ccc(Cl)cc1
A498 renal
  TGI: 97.6 µM
DU-145 prostate
  TGI: > 100 µM
HCT-116 colon
  TGI: > 100 µM
K-562 leukemia
  TGI: > 100 µM
KM12 colon
  TGI: > 100 µM
OVCAR-8 ovarian
  TGI: > 100 µM
SF-539 CNS
  TGI: > 100 µM
SNB-75 CNS
  TGI: > 100 µM
SW-620 colon
  TGI: > 100 µM

## Cc1cn([C@H]2[C@@H](CO)C[C@H]2O)c(=O)[nH]c1=O
A498 renal
  TGI: > 100 µM
DU-145 prostate
  TGI: > 100 µM
HCT-116 colon
  TGI: > 100 µM
K-562 leukemia
  TGI: > 100 µM
KM12 colon
  TGI: > 100 µM
OVCAR-8 ovarian
  TGI: > 100 µM
SF-539 CNS
  TGI: > 100 µM
SK-MEL-2 melanoma
  TGI: > 100 µM
SNB-75 CNS
  TGI: > 100 µM
SW-620 colon
  TGI: > 100 µM

## O=S1(=O)OCCOS(=O)(=O)C1Cc1nc2ccccc2[nH]1
DU-145 prostate
  TGI: > 100 µM
HCT-116 colon
  TGI: 57 µM
K-562 leukemia
  TGI: > 100 µM
KM12 colon
  TGI: > 100 µM
OVCAR-8 ovarian
  TGI: > 100 µM
SK-MEL-2 melanoma
  TGI: > 100 µM

## CC1(C)CCC2(C(=O)OC3OC(CO)C(O)C(O)C3O)CCC3(CO)C(=CCC4C5(C)CC(O)C(O)C(C)(C(=O)OC6OC(CO)C(O)C(O)C6O)C5CCC43C)C2C1 (stereo not drawn)
A498 renal
  TGI: > 100 µM
DU-145 prostate
  TGI: > 100 µM
HCT-116 colon
  TGI: > 100 µM
K-562 leukemia
  TGI: > 100 µM
KM12 colon
  TGI: > 100 µM
OVCAR-8 ovarian
  TGI: > 100 µM
SF-539 CNS
  TGI: > 100 µM
SK-MEL-2 melanoma
  TGI: > 100 µM
SNB-75 CNS
  TGI: > 100 µM
SW-620 colon
  TGI: > 100 µM

## O=C1CSC2(CC(/C=C/c3ccccc3Br)=NN2c2cccc(S(=O)(=O)O)c2)N1c1nc2ccccc2s1 (stereo not drawn)
A498 renal
  TGI: > 100 µM
DU-145 prostate
  TGI: > 100 µM
HCT-116 colon
  TGI: > 100 µM
K-562 leukemia
  TGI: > 100 µM
KM12 colon
  TGI: > 100 µM
OVCAR-8 ovarian
  TGI: > 100 µM
SF-539 CNS
  TGI: > 100 µM
SK-MEL-2 melanoma
  TGI: > 100 µM
SNB-75 CNS
  TGI: > 100 µM
SW-620 colon
  TGI: > 100 µM

## C=C1CC(Cn2cc(Br)c(=O)[nH]c2=O)(c2ccc(-c3ccccc3)cc2)OC1=O (stereo not drawn)
A498 renal
  TGI: 2.33 µM
DU-145 prostate
  TGI: 4.59 µM
HCT-116 colon
  TGI: 1.32 µM
K-562 leukemia
  TGI: > 100 µM
KM12 colon
  TGI: 3.68 µM
OVCAR-8 ovarian
  TGI: 4.29 µM
SF-539 CNS
  TGI: 3.92 µM
SK-MEL-2 melanoma
  TGI: 3.26 µM
SNB-75 CNS
  TGI: 17.6 µM
SW-620 colon
  TGI: 1.58 µM

## Oc1[nH]c2ccccc2c1/C=c1/cc2c(c(-c3ccc(C(F)(F)F)cc3)n1)=Nc1ccccc1-2
A498 renal
  GI50: 5200 nM
  TGI: 38.6 µM
DU-145 prostate
  GI50: 8.93 µM
  TGI: 34.8 µM
HCT-116 colon
  GI50: 2900 nM
  TGI: 10.1 µM
K-562 leukemia
  GI50: 2570 nM
  TGI: 14.9 µM
KM12 colon
  GI50: 2160 nM
  TGI: 12.2 µM
OVCAR-8 ovarian
  GI50: 4.99 µM
  TGI: 28.1 µM
SF-539 CNS
  GI50: 16.3 µM
  TGI: 44.6 µM
SK-MEL-2 melanoma
  GI50: 8.66 µM
  TGI: 28.7 µM
SNB-75 CNS
  GI50: 1450 nM
  TGI: 20.7 µM
SW-620 colon
  GI50: 2400 nM
  TGI: 13 µM

## O=C(c1ccco1)C1CC(c2ccc3ccccc3c2O)=NN1c1ccc([N+](=O)[O-])cc1[N+](=O)[O-] (stereo not drawn)
A498 renal
  TGI: > 100 µM
DU-145 prostate
  TGI: > 100 µM
HCT-116 colon
  TGI: > 100 µM
KM12 colon
  TGI: 26.2 µM
OVCAR-8 ovarian
  TGI: > 100 µM
SF-539 CNS
  TGI: > 100 µM
SK-MEL-2 melanoma
  TGI: 97.3 µM
SNB-75 CNS
  TGI: 89.1 µM
SW-620 colon
  TGI: > 100 µM

## c1ccc([P+](c2ccccc2)(c2ccccc2)c2ccc([P+](c3ccccc3)(c3ccccc3)c3ccccc3)cc2)cc1
A498 renal
  TGI: > 100 µM
DU-145 prostate
  TGI: > 100 µM
HCT-116 colon
  TGI: > 100 µM
K-562 leukemia
  TGI: > 100 µM
KM12 colon
  TGI: > 100 µM
OVCAR-8 ovarian
  TGI: > 100 µM
SF-539 CNS
  TGI: 81.5 µM
SK-MEL-2 melanoma
  TGI: > 100 µM
SNB-75 CNS
  TGI: > 100 µM
SW-620 colon
  TGI: > 100 µM

## COc1ccc(C=Nc2ccc(-c3nc4ccccc4[nH]3)cc2)cc1OC
A498 renal
  TGI: > 100 µM
DU-145 prostate
  TGI: > 100 µM
HCT-116 colon
  TGI: > 100 µM
K-562 leukemia
  TGI: > 100 µM
KM12 colon
  TGI: > 100 µM
OVCAR-8 ovarian
  TGI: > 100 µM
SF-539 CNS
  TGI: > 100 µM
SK-MEL-2 melanoma
  TGI: > 100 µM
SNB-75 CNS
  TGI: 52.3 µM
SW-620 colon
  TGI: > 100 µM

## COc1ccc(C(=O)c2ccc(-n3cc(/C=C/[N+](=O)[O-])c4ccccc43)cc2)cc1
A498 renal
  TGI: 44.9 µM
DU-145 prostate
  TGI: > 51.2 µM
HCT-116 colon
  TGI: 28.2 µM
K-562 leukemia
  TGI: > 100 µM
KM12 colon
  TGI: 55.2 µM
OVCAR-8 ovarian
  TGI: 45.2 µM
SF-539 CNS
  TGI: 31.3 µM
SK-MEL-2 melanoma
  TGI: 58 µM
SNB-75 CNS
  TGI: > 100 µM
SW-620 colon
  TGI: > 100 µM

## O=C1OI(C#Cc2ccccc2)c2ccccc21
A498 renal
  TGI: 16.4 µM
DU-145 prostate
  TGI: 23.4 µM
HCT-116 colon
  TGI: 5.8 µM
K-562 leukemia
  TGI: 6.7 µM
KM12 colon
  TGI: 9.31 µM
OVCAR-8 ovarian
  TGI: 36.4 µM
SF-539 CNS
  TGI: 5.58 µM
SK-MEL-2 melanoma
  TGI: 44.1 µM
SNB-75 CNS
  TGI: 10.3 µM
SW-620 colon
  TGI: 5.14 µM

## CC(=O)c1ccc(NC(=O)CSc2nc(C)nc3c2sc(=S)n3-c2ccccc2)cc1
A498 renal
  TGI: > 3.16 µM
DU-145 prostate
  TGI: > 3.16 µM
HCT-116 colon
  TGI: > 3.16 µM
K-562 leukemia
  TGI: > 10 µM
KM12 colon
  TGI: > 3.16 µM
OVCAR-8 ovarian
  TGI: > 10 µM
SF-539 CNS
  TGI: > 3.16 µM
SK-MEL-2 melanoma
  TGI: > 3.16 µM
SNB-75 CNS
  TGI: > 3.16 µM
SW-620 colon
  TGI: > 3.16 µM

## CCOC(=O)CCCn1cc(C(=O)OC)nn1
DU-145 prostate
  TGI: > 100 µM
HCT-116 colon
  TGI: > 100 µM
KM12 colon
  TGI: > 100 µM
OVCAR-8 ovarian
  TGI: > 100 µM
SF-539 CNS
  TGI: > 100 µM
SK-MEL-2 melanoma
  TGI: > 100 µM
SNB-75 CNS
  TGI: > 100 µM
SW-620 colon
  TGI: > 100 µM
